The values below come from PMC10938783, “A novel pan-PI3K inhibitor KTC1101 synergizes with anti-PD-1 therapy by targeting tumor suppression and immune activation” (Molecular Cancer, 2024).

The subject of data set [1] is tumor cell lines. The experiment in a line: Apoptosis analysis. Format: cell-based, human. Particulars: tested cell lines, 48 h.
Data set [2] is described as follows: Plasma metabolic stability assay. It counts as in vitro ADME. Particulars: mouse plasma, 37°C, 120 min incubation. The procedure:
495 µL of plasma was placed in a 96-well plate and pre-incubated at 37°C for 5 min.

Data set [3] concerns immune cell populations in B16 tumors. The experiment in a line: Flow cytometry of tumor-infiltrating immune cells. It counts as in vivo, mouse. Conditions: intermittent dosing. Here is the method: To obtain single-cell suspensions for analysis by flow cytometry, tumors were excised, minced, and dissociated in Deoxyribonuclease/collagenase/hyaluronidase buffer (0.1 mg/mL Deoxyribonuclease I, 0.2 mg/mL Collagenase IV and 0.2 mg/mL Hyaluronidase) for 60 min at 37 °C with agitation, and strained through a 70 μm strainer for downstream applications. Tissue was dissociated as described above to obtain single-cell suspensions. Cells were stained with antibodies for 30 min at 4 °C, and then fixed and intracellularly stained using Foxp3/ Transcription Factor Staining Buffer Set (eBioscience) according to the manufacturer’s instructions. Antibodies used in this study can be found in Supplementary Table 2. The stained cells were acquired on a BD C6 Flow Cytometer using BD AccuriTM C6 Software (BD Biosciences) and the data were processed using FlowJo software.
Background: In flow cytometry, cells or beads pass a laser one at a time.

In data set [4] the test system is PC3 tumors. The experiment in a line: PC3 xenograft in BALB/c nude mice. It counts as in vivo, mouse. The procedure:
(§1) BALB/c nude, NSG, and C57BL/6J mice were obtained from Tianjin Medical University. The housing temperature was controlled, ranging from 20.5–24 °C, and humidity was monitored but not controlled ranging from 30–70%. The 12-h daily light cycle was from 06:00 to 18:00. To generate a murine subcutaneous tumor model, PC3 and HSC2 cells were subcutaneously injected into the right lateral flank of 4- to 5-week-old male BALB/c nude mice. TMD8, CAL33, and S24 cells were subcutaneously injected into the right lateral flank of 4- to 5-week-old male NSG mice. When tumors reached a volume of 300–500 mm^3, they were excised, diced into 2 mm × 2 mm × 2 mm pieces, and implanted into the right flanks of BALB/c nude or NSG mice. Tumors were allowed to grow to a volume of 100 mm^3, and then the animals were randomly divided into several groups. Each group of five mice was treated with either vehicle or KTC1101 (25, 50, or 100 mg/kg, PO). Tumor size was measured every 3 d or 4 d until the endpoint. The tumor volume was calculated using the following formula: length × width × height/2. At the end of the experimental period, mice were euthanized by overdosing on pentobarbital sodium, and the tumors were removed. Tumor tissue was formalin-fixed and paraffin-embedded for histological analysis.

In data set [5] the test system is S24 tumors. The experiment in a line: S24 syngeneic model in C57BL/6 mice. Format: in vivo, mouse. Particulars: S24 in WT C57BL/6 mice, 100 mg/kg daily oral gavage. Here is the method:
To generate syngeneic mouse models, S24 and B16 cells were subcutaneously injected into the right lateral flank of 4- to 5-week-old male C57BL/6 mice. Tumors were allowed to grow to a volume of 100 mm^3, and then the animals were randomly divided into several groups. For S24 tumor-bearing mice, each group of five mice was treated with either vehicle or KTC1101 (100 mg/kg, PO). Tumor size was measured every 3 d or 4 d until the endpoint. For B16 tumor-bearing mice, each group of five mice was treated with either vehicle, KTC1101 (50 or 100 mg/kg, PO), anti-PD-1 antibody (250 μg per mouse, clone RPM1-14, Bio X cell, IP), or KTC1101 and anti-PD-1 antibody. Tumor size was monitored every other day, and the tumor was harvested at indicated time points for analysis of tumor-infiltrating lymphocytes. The tumor volume was calculated using the following formula: length × width × height/2.

In data set [6] the test system is CAL33 tumors. The experiment in a line: CAL33 xenograft in NSG mice. Format: in vivo, mouse. Particulars: 100 mg/kg PO. Here is the method: as §1
The subject of data set [7] is PC3 cells gene expression. The experiment in a line: RNA-Seq (DEGs, GSEA) of PC3 cells. Conditions: 25 nM, 48 h.
The test system of data set [8] is JFCR39 panel of 39 human tumor cell lines. The experiment in a line: JFCR39 panel growth inhibition, panel statistics. It counts as cell-based. Conditions: for GI50: Homo sapiens. The procedure:
JFCR39 drug discovery system was used to measure the growth inhibitory activities and identify the target of KTC1101. The JFCR39 panel consists of 39 cell lines seeded in 96-well plates. After 48-h treatment with KTC1101, cell growth was measured using the sulforhodamine B assay. […] The deviation of log GI50 for each cell line from the average log GI50 across the JFCR39 panel was plotted as a fingerprint. MG-MID (mean of Log GI50 values) represents the average log GI50 for all 39 cell lines. The most sensitive and least sensitive cell lines were identified by calculating the difference in their log GI50 values (Range) and the difference between the most sensitive cell line and the average GI50 on the JFCR39 panel (Delta). The fingerprint of KTC1101 was compared with the fingerprints of reference compounds in the database. The Pearson correlation coefficient (r) was calculated (n = 39).

Data set [9] can be described thus: Liver microsome metabolic stability assay. Conditions: mouse, liver microsomes. (In general: Liver microsomes are vesicles of endoplasmic reticulum, rich in cytochrome P450 enzymes.)
For data set [10], the system named is HSC4 cells. The experiment in a line: Cell proliferation MTT assay. Format: cell-based. Particulars: Homo sapiens, HSC-4; HSC4, 48-h treatment; read-out: IC50 cell viability. The procedure:
(§2) Cell proliferation was measured by MTT assay as previously described. The cells were seeded in a volume of 200 μL/well in 96-well plates. The next day, cells were treated with DMSO or a series of concentrations of KTC1101. After a 48-h incubation period, 20 μL of MTT (5 mg/mL) was added to each well. After further incubation for 4 h at 37 °C, the absorbance at 490 nm was measured using an iMark microplate reader (BIO-RAD, Hercules, CA, USA).

The subject of data set [11] is HSC2 cells. The experiment in a line: Cell proliferation MTT assay. It counts as cell-based. Conditions: Homo sapiens, HSC-2; HSC2, 48-h treatment; read-out: IC50 cell viability. The procedure:
as §2
(In general: Formazan colour is commonly taken as a measure of viable cells.)

The test system of data set [12] is CAL33 cells. The data set can be described thus: Cell proliferation MTT assay. Format: cell-based. Particulars: Homo sapiens, CAL-33; CAL33, 48-h treatment; read-out: IC50 cell viability. Here is the method: as §2
Data set [13] concerns PC3 cells. The data set can be described thus: Cell proliferation MTT assay. Particulars: Homo sapiens, PC-3; PC3, 48-h treatment; read-out: IC50 cell viability. It counts as cell-based. Here is the method: as §2
Data set [14] has as its system TMD8 cells. The data set can be described thus: Cell proliferation MTT assay. Format: cell-based. Conditions: Homo sapiens; TMD8, 48-h treatment; read-out: IC50 cell viability. The procedure: as §2

Each structure is given as a SMILES string. Where two headings read alike, the source gives them in different places.

Take `COc1cc(N)cc2c1nc(C(F)F)n2-c1nc(N2CCCOCC2)nc(N2CCOCC2)n1` [KTC1101, 2-(difluoromethyl)-4-methoxy-1-(4-morpholino-6-(1,4-oxazepan-4-yl)-1,3,5-triazin-2-yl)-1H-benzo[d]imidazol-6-amine]: the induction of apoptosis entry in data set [1] is “did not observe a potent induction of apoptosis except HSC2 cell line”. Moreover, the half-life (usually the time needed for the level to fall by half in the phase considered) at 1 µM in data set [2] was greater than 120 min; in data set [9], 40.7 min. Further, the “intratumoral T cell populations (FACS)” value in [3] is “increase in intratumoral CD8^+ T, CD4^+ T, and a reduction of Treg cells”. For the same compound, the tumor growth result is on record as “significant delay in tumor growth” in data set [4] (25 mg/kg PO), “Tumor growth arrest” in data set [4] (100 mg/kg PO) and “Tumor growth arrest” in data set [6]. Besides, the “efficacy in inhibiting PC3 tumors” value in data set [4] (50 mg/kg PO) is “equivalent to 200 mg/kg ZSTK474”. Further, in [5], the “time until relapse was detected” value is recorded as 18 days. The “expression of genes associated with the PI3K/AKT/mTOR pathway (GSEA)” value in [7] was “reduction in the expression of genes”. Also, the GI50 (usually the concentration giving 50% growth inhibition) was 23.4 nM in data set [8] (JFCR39 panel, read-out: mean GI50 across all 39 cell lines) and 23.4 nM in data set [8] (all 39 cell lines, read-out: MG-MID (mean of Log GI50 values) (converted)). Moreover, the “fold lower mean GI50 than Copanlisib” value in [8] (JFCR39 panel) was 5.7 fold. Further, the “fold lower mean GI50 than ZSTK474” value in data set [8] (JFCR39 panel) amounted to 13.7 fold. In [9], the microsomal CLint (in general, the rate of metabolic loss divided by the concentration) at 1 µM is 34 µL/min/mg. Also, the IC50 (commonly the midpoint of a concentration-inhibition curve) stood at 50.6 nM in data set [10]; 117 nM in data set [11]; 124 nM in data set [12]; 23.2 nM in data set [13]; 20.6 nM in data set [14].
